Assay results as given in US7855177B1, “Methods and kits for preventing hypoglycemia” (Cebix Inc., priority 2009, dated 2010).

Legend:
[1] = system: type 1 diabetes patients with peripheral neuropathy; experiment: Phase II trial: hypoglycemic events and hypoglycemic coma; assay type: in vivo, human
Method: The study was a multicenter, double-blind, randomized, placebo-controlled phase II trial comparing the effect of subcutaneous injection (S.C.) of 500 nmoL/24 h (1.5 mg) C-peptide; 1,500 nmoL/24 h (4.5 mg) C-peptide and placebo treatment for 6 months in type 1 diabetes patients with peripheral neuropathy.
Hypoglycemic events are common events in insulin-treated patients. For practical reasons only severe hypoglycemic events, i.e., if the patient required assistance from another person in order to regain normoglycaemia, were reported as an AE.

C-peptide antibodies = experiment: Phase II trial: antibody formation against C-peptide (ELISA); assay type: in vivo, human; settings: baseline and after 3 and 6 months of C-peptide treatment
Text: C-peptide plasma samples, C-peptide antibodies, and markers for atherosclerosis were processed (centrifuged, etc.) and stored frozen until transport to a central lab. HLA typing samples were shipped to a central lab for processing and storage until analysis. All samples there were labelled uniquely, including information about screening number and sample time.
Samples for the assessment of antibody formation were collected at baseline and at visits 2 and 4. An appropriate enzyme-linked immunoabsorbant assay (ELISA) method was developed and assessments carried out.

[2] = system: type 1 diabetes patients with peripheral neuropathy; experiment: Phase II trial: ECG and vital signs; assay type: in vivo, human; settings: for BPd (diastolic blood pressure), change from baseline to 6 months treatment, Mean ± SD / BPd (diastolic blood pressure), change from baseline to 6 months treatment, Median / BPs (systolic blood pressure), change from baseline to 6 months treatment, Mean ± SD / BPs (systolic blood pressure), change from baseline to 6 months treatment, Median / Heart rate, change from baseline to 6 months treatment, Mean ± SD / Heart rate, change from baseline to 6 months treatment, Median / QTc-interval Bazett, change from baseline to 6 months treatment, Mean ± SD / QTc-interval Bazett, change from baseline to 6 months treatment, Median / QTc-interval Fredericia, change from baseline to 6 months treatment, Mean ± SD / QTc-interval Fredericia, change from baseline to 6 months treatment, Median: PP data set
Method: ECG was performed at baseline and at end of study, i.e., visit 4 (at 6 months±2 weeks from the S/B visit).

[3] = S.C.; cited from earlier work
[4] = Phase II trial: C-peptide plasma levels (time-resolved fluoroimmunoassay); assay type: in vivo, human
Method: The sampling of C-peptide in plasma at visits 2 and 4 coincided with the clinical visit and the time between the most recent administration of the trial drug and sampling varied between patients. Thereby, the result of C-peptide concentrations in plasma was less suitable for pharmacokinetic evaluations, but the results contributed to the assessment of treatment compliance.
C-peptide plasma levels were measured at baseline, and after 3 and 6 months of treatment. Analysis was performed by the Department of Clinical Chemistry Karolinska University Hospital, Solna using a time-resolved fluoroimmunoassay (AutoDelfia, Wallac Oy, Turku, Finland). […] The plasma levels of C-peptide attained in this study ranged from about 0.2 nM to a maximum of about 6 nM in the high dose group.
C-peptide plasma levels were also measured pre-dosing in the morning in 22 randomly selected patients at the Karolinska Hospital after 4.5 months of study treatment (visit 3). As compared to the C-peptide concentration at baseline, the C-peptide plasma level at this visit was unchanged in the placebo-treated patients (0±0.008 nmoL/L; n=10), increased by 0.045±0.092 nmoL/L in the low-dose C-peptide group (n=8) and increased by 0.13±0.083 nmoL/L in the high-dose C-peptide group (n=4).

[5] = system: type 1 diabetes patients with peripheral neuropathy; experiment: Phase II trial: clinical laboratory evaluation (hematology, blood chemistry, urinalysis); assay type: in vivo, human; settings: following the study treatment
Text: Hematology: hemoglobin, hematocrit, mean cell volume, leukocytes, platelets, differential count
Blood chemistry: sodium, potassium, C-reactive protein (CRP), alanine transaminase, aspartate transaminase, serum creatinine, albumin
Urinanalysis: protein, blood, nitrite
Before starting the study, the investigator supplied the Sponsor with a list of the normal laboratory ranges and units of measurement for the laboratory variables to be determined during the study at the site. All abnormal laboratory (those out of the normal range) values required comments on the CRF, regardless of the clinical significance: […]

[6] = High-dose C-peptide, Metabolism and nutritional disorders
[7] = Low-dose C-peptide, Metabolism and nutritional disorders

CC(C)C[C@H](NC(=O)[C@H](C)NC(=O)[C@H](CC(C)C)NC(=O)[C@@H]1CCCN1C(=O)[C@H](CCC(N)=O)NC(=O)[C@H](CC(C)C)NC(=O)[C@H](CO)NC(=O)CNC(=O)[C@H](C)NC(=O)CNC(=O)[C@@H]1CCCN1C(=O)CNC(=O)CNC(=O)CNC(=O)[C@H](CC(C)C)NC(=O)[C@H](CCC(=O)O)NC(=O)[C@@H](NC(=O)[C@H](CCC(N)=O)NC(=O)CNC(=O)[C@@H](NC(=O)[C@H](CCC(N)=O)NC(=O)[C@H](CC(C)C)NC(=O)[C@H](CC(=O)O)NC(=O)[C@H](CCC(=O)O)NC(=O)[C@H](C)NC(=O)[C@@H](N)CCC(=O)O)C(C)C)C(C)C)C(=O)N[C@@H](CCC(=O)O)C(=O)NCC(=O)N[C@@H](CO)C(=O)N[C@@H](CC(C)C)C(=O)N[C@@H](CCC(N)=O)C(=O)O [C-peptide]
hypoglycemic coma episodes requiring external assistance ([1]; C-peptide treated group): Two
occurrences of hypoglycemic coma ([1]; C-peptide treated groups, 6 months, none in placebo group): four
Blood glucose fluctuation, number of AEs [1, 6]: 0
Hyperglycemia, number of AEs [1, 6]: 1
Hyperlipidemia, number of AEs [1, 6]: 0
Hypoglycemia, number of AEs [1, 6]: 5
Hypoglycemia, number of AEs probably/possibly related to study drug [1, 6]: 1
Hypoglycemic coma, number of AEs [1, 6]: 2
Hypothyroidism, number of AEs [1, 6]: 0
Increased appetite, number of AEs [1, 6]: 0
Insulin sensitivity, number of AEs [1, 6]: 0
Vitamin B12 deficiency, number of AEs [1, 6]: 1
Blood glucose fluctuation, number of AEs [1, 7]: 0
Hyperglycemia, number of AEs [1, 7]: 1 (1)
Hyperglycemia, number of AEs probably/possibly related to study drug [1, 7]: 1 (1)
Hyperlipidemia, number of AEs [1, 7]: 1
Hypoglycemia, number of AEs [1, 7]: 2
Hypoglycemia, number of AEs probably/possibly related to study drug [1, 7]: 1
Hypoglycemic coma, number of AEs [1, 7]: 2
Hypothyroidism, number of AEs [1, 7]: 0
Increased appetite, number of AEs [1, 7]: 0
Insulin sensitivity, number of AEs [1, 7]: 1 (1)
Insulin sensitivity, number of AEs probably/possibly related to study drug [1, 7]: 1 (1)
Vitamin B12 deficiency, number of AEs [1, 7]: 0
risk of hypoglycemic coma ([1]; subpopulation of patients, C-peptide replacement therapy): increased risk of hypoglycemic coma
reactivity (antibodies) to C-peptide (C-peptide antibodies): no or very weak reactivity
BPd (diastolic blood pressure), change from baseline to 6 months treatment, Mean ± SD ([2]; High-dose C-peptide, n = 39): −2.6 ± 8.0 mm Hg
BPd (diastolic blood pressure), change from baseline to 6 months treatment, Median ([2]; High-dose C-peptide, n = 39): −1.0 mm Hg
BPs (systolic blood pressure), change from baseline to 6 months treatment, Mean ± SD ([2]; High-dose C-peptide, n = 39): −8.8 ± 10.0 mm Hg
BPs (systolic blood pressure), change from baseline to 6 months treatment, Median ([2]; High-dose C-peptide, n = 39): −8.0 mm Hg
Heart rate, change from baseline to 6 months treatment, Mean ± SD ([2]; High-dose C-peptide, n = 39): −3.2 ± 10.0 bpm
Heart rate, change from baseline to 6 months treatment, Median ([2]; High-dose C-peptide, n = 39): −4.0 bpm
QTc-interval Bazett, change from baseline to 6 months treatment, Mean ± SD ([2]; High-dose C-peptide, n = 39): -4.5 ± 20.3 ms
QTc-interval Bazett, change from baseline to 6 months treatment, Median ([2]; High-dose C-peptide, n = 39): 0.0 ms
QTc-interval Fredericia, change from baseline to 6 months treatment, Mean ± SD ([2]; High-dose C-peptide, n = 39): -0.5 ± 16.2 ms
QTc-interval Fredericia, change from baseline to 6 months treatment, Median ([2]; High-dose C-peptide, n = 39): 0.0 ms
BPd (diastolic blood pressure), change from baseline to 6 months treatment, Mean ± SD ([2]; Low-dose C-peptide, n = 53): −2.7 ± 8.2 mm Hg
BPd (diastolic blood pressure), change from baseline to 6 months treatment, Median ([2]; Low-dose C-peptide, n = 53): −1.0 mm Hg
BPs (systolic blood pressure), change from baseline to 6 months treatment, Mean ± SD ([2]; Low-dose C-peptide, n = 53): −2.1 ± 12.8 mm Hg
BPs (systolic blood pressure), change from baseline to 6 months treatment, Median ([2]; Low-dose C-peptide, n = 53): −1.0 mm Hg
Heart rate, change from baseline to 6 months treatment, Mean ± SD ([2]; Low-dose C-peptide, n = 53): −0.9 ± 8.2 bpm
Heart rate, change from baseline to 6 months treatment, Median ([2]; Low-dose C-peptide, n = 53): −2.0 bpm
QTc-interval Bazett, change from baseline to 6 months treatment, Mean ± SD ([2]; Low-dose C-peptide, n = 53): -0.1 ± 17.5 ms
QTc-interval Bazett, change from baseline to 6 months treatment, Median ([2]; Low-dose C-peptide, n = 53): 0.0 ms
QTc-interval Fredericia, change from baseline to 6 months treatment, Mean ± SD ([2]; Low-dose C-peptide, n = 53): 0.9 ± 14.1 ms
QTc-interval Fredericia, change from baseline to 6 months treatment, Median ([2]; Low-dose C-peptide, n = 53): 1.3 ms
changes in heart rate, blood pressure, and QTc ([2]; any of the three treatment groups): nor were there any significant changes
decrease in systolic blood pressure compared to the low-dose C-peptide group ([2]; high-dose C-peptide group, p<0.004, not different from placebo): significantly greater decrease
bioavailability of subcutaneously administered C-peptide [3]: approximately 80%
expected concentrations relative to the low dose regimen ([4]; high dose 1,500 nmoL/24 h S.C., expected): ~3 times
increase of pre-dosing morning C-peptide plasma level vs baseline ([4]; high-dose C-peptide group, n=4, 4.5 months (visit 3)): 0.13 ± 0.083 nmol/L
expected physiological mean plasma concentration ([4]; low dose 500 nmoL/24 h S.C., 4 times daily, expected): ~1 nmoL/L
increase of pre-dosing morning C-peptide plasma level vs baseline ([4]; low-dose C-peptide group, n=8, 4.5 months (visit 3)): 0.045 ± 0.092 nmol/L
changes in laboratory variables [5]: no significant changes in any of the variables
